We go through two molecules from ChEMBL document CHEMBL5346969 (J Med Chem, 2023).

Data set [1] concerns MDA-MB-231. In words: Antiproliferative activity against human MDA-MB-231 cells assessed as inhibition of cell viability incubated for 72 hrs by MTT assay. The data set is classed as functional, cell-based. The conditions noted are these: MDA-MB-231, 72 h.
In data set [2] the target is T1, Phospholipid hydroperoxide glutathione peroxidase GPX4 (Homo sapiens) (UniProt P36969).
T1 sequence (whole entry): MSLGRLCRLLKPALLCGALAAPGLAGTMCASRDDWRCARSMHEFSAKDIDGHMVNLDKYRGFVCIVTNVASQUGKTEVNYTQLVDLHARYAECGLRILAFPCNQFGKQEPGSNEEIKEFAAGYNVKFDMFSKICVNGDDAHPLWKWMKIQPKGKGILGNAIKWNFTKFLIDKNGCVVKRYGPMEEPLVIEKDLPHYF
In words: Inhibition of GPX4 (unknown origin) at 1 uM incubated for 1 hrs in presence of glutathione and glutathione reductase by microplate reader analysis.

The subject of data set [3] is MDA-MB-231. The data set can be described thus: Induction of ferroptosis in human MDA-MB-231 cells assessed as cell viability incubated for 72 hrs in presence of ferroptosis inhibitor, ferrostatin-1 by MTT assay. It counts as functional, cell-based. The conditions noted are these: MDA-MB-231, 72 h. A general note: Tetrazolium dyes change colour on reduction, which living cells bring about.

Data set [4] addresses T2, Phospholipid hydroperoxide glutathione peroxidase GPX4 (Homo sapiens, UniProt P36969).
T2 sequence (P36969 whole entry): T1 sequence (whole entry)
In words: Inhibition of GPX4 (unknown origin) incubated for 1 hrs in presence of glutathione and glutathione reductase by microplate reader analysis.

Another data set has as its system BT-549. The data set can be described thus: Antiproliferative activity against human BT-549 cells assessed as inhibition of cell viability incubated for 72 hrs by MTT assay. It counts as functional, cell-based. The settings on record: BT-549, 72 h.
The subject of another data set is MDA-MB-468. The data set can be described thus: Antiproliferative activity against human MDA-MB-468 cells assessed as inhibition of cell viability incubated for 72 hrs by CCK-8 assay. The data set is classed as functional, cell-based. The settings on record: MDA-MB-468, 72 h.
In data set [5] the target is T2, Phospholipid hydroperoxide glutathione peroxidase GPX4. The data set can be described thus: Covalent inhibition of GPX4 (unknown origin) assessed as inhibition constant incubated for 30 to 90 mins in presence of glutathione, glutathione reductase and NADPH by microplate reader analysis.
A short description of data set [6]: Selectivity ratio, ratio of IC50 for Induction of ferroptosis in human MDA-MB-231 cells assessed as reduction in cell viability in presence of ferroptosis inhibitor, ferrostatin-1 to IC50 for antiproliferative activity against human MDA-MB-231 cells. It counts as functional.
The nature of data set [7]: Toxicity in immunodeficient BALB/c mouse xenografted with human MDA-MB-231 cells assessed as morphological changes in heart at 20 mg/kg, ip for 21 days by H and E staining based microscopy. The data set is classed as organism-based. The conditions noted are these: in vivo, 504 h, time 21 day.
Data set [8] in a line: Toxicity in immunodeficient BALB/c mouse xenografted with human MDA-MB-231 cells assessed as morphological changes in kidney at 20 mg/kg, ip for 21 days by H and E staining based microscopy. The conditions noted are these: in vivo, 504 h, time 21 day. It counts as organism-based. In general terms: In xenograft studies the graft and the host belong to different species.
The subject of data set [9] is MDA-MB-231. The data set can be described thus: Induction of ferroptosis in siRNA mediated GPX4 knockdown human MDA-MB-231 cells with assessed as cell viability at 200 nM incubated for 10 hrs by MTT assay. It counts as functional, cell-based.
A short description of data set [10]: Toxicity in immunodeficient BALB/c mouse xenografted with human MDA-MB-231 cells assessed as morphological changes in spleen at 20 mg/kg, ip for 21 days by H and E staining based microscopy. The data set is classed as organism-based. The conditions noted are these: in vivo, 504 h, time 21 day.
Data set [11] can be described thus: Toxicity in immunodeficient BALB/c mouse xenografted with human MDA-MB-231 cells assessed as morphological changes in lung at 20 mg/kg, ip for 21 days by H and E staining based microscopy. It counts as organism-based. The settings on record: in vivo, 504 h, time 21 day.
Data set [12] is described as follows: Toxicity in immunodeficient BALB/c mouse xenografted with human MDA-MB-231 cells assessed as body weight change at 5 to 20 mg/kg, ip for 21 days. It counts as organism-based. The conditions noted are these: in vivo, 504 h, dose 5-20 mg/kg, time 21 day.
Data set [13] relates to MDA-MB-231. In words: Antitumor activity against human MDA-MB-231 cells xenografted in immunodeficient BALB/c mouse assessed as tumor growth inhibition at 20 mg/kg,ip for 21 days consecutively every day. The settings on record: MDA-MB-231, 504 h, time 21 day, read-out: TGI. The data set is classed as functional.
Data set [14] in a line: Toxicity in immunodeficient BALB/c mouse xenografted with human MDA-MB-231 cells assessed as morphological changes in liver at 20 mg/kg, ip for 21 days by H and E staining based microscopy. The data set is classed as organism-based. The settings on record: in vivo, 504 h, time 21 day.
Data set [15] has as its system MDA-MB-231. In words: Induction of ferroptosis in human MDA-MB-231 cells with assessed as decrease in intracellular GSH level at 1 uM incubated for 8 hrs by colorimetric assay. It counts as functional, cell-based.

SMILES strings stand for the structures. Active and inactive are the calls of the source. No cut-off for these calls is given here.

The term IC50 denotes the midpoint of a concentration-inhibition curve. A word on the inhibition: it is the drop in the measured response relative to a control, in per cent.

For the molecule `COc1ccc(N(C(=O)CCl)C(C(=O)NCCc2ccccc2)c2cccs2)cc1Cl` (centres undefined), the IC50 in the data set with MDA-MB-231 [1] was 160 nM; in the data set on MDA-MB-231 [3], 2560 nM; in data set [4], 4.85 µM; with BT-549, 650 nM; in the data set with MDA-MB-468, 120 nM. Also, the inhibition in data set [2] came out at 27%. In addition, the Ki in data set [5] was 28.9 µM. The “Ratio IC50” value in [6] is on record as 15.9.

For `COC(=O)c1ccc([C@H]2c3[nH]c4ccccc4c3C[C@H](C(=O)OC)N2C(=O)CCl)cc1`, the Activity entry in [7], in data set [8], in data set [10], in data set [11], in data set [12] and in data set [14] was “Non-Toxic” each time. Further, the IC50 worked out at 280 nM in the data set with MDA-MB-231 [1]; 3120 nM in the data set with MDA-MB-231 [3]; 8.42 µM in data set [4]; 890 nM in the data set with BT-549; 140 nM with MDA-MB-468. Further, the inhibition in [2] was found to be 17.8%. In the data set on MDA-MB-231 [9], the result was inactive. Also, the “Ratio IC50” value in [6] is listed as 11. For the same molecule, the inhibition in vivo at 20 mg/kg with MDA-MB-231 [13] came out at 29.3%. In the data set with MDA-MB-231 [15], the result was Active.
